Values quoted from earlier work as cited in patent US4801444A, “Medicinal preparation for individual prevention of venereal diseases and treatment of urogenital trichomoniasis” (Poltavsky Meditsinsky Stomatologichesky Institut, priority 1988, dated 1989).
Read-outs that look alike come from different tables or passages of the source.

Columns and labels:
[1] = tested on: urogenital trichomoniasis
trichomonads = details: imidazole medicines, clinical use
venereal diseases [2] = details: 0.05-0.1 percent solution
venereal diseases [3] = details: 0.05-0.1 percent solution; remark: listed apart in the source
[4] = 0.05-0.1 percent solution, clinical application

O=C(N[C@H](CO)[C@H](O)c1ccc([N+](=O)[O-])cc1)C(Cl)Cl [laevomycetin]
efficacy in topical treatment of urogenital trichomoniasis ([1]; topical (external)): insufficiently efficacious

CC(=O)Nc1cc([As](=O)(O)O)ccc1O [Acetarsol]
efficacy in topical treatment of urogenital trichomoniasis ([1]; topical (external)): insufficiently efficacious

O=S(=O)([O-])[O-].[Zn+2] [zinc sulphate]
efficacy in topical treatment of urogenital trichomoniasis ([1]; topical (external)): insufficiently efficacious

O=S(=O)([O-])[O-].[Cu+2] [copper sulphate]
efficacy in topical treatment of urogenital trichomoniasis ([1]; topical (external)): insufficiently efficacious

O=[N+]([O-])[O-].[Ag+] [lapis]
efficacy in topical treatment of urogenital trichomoniasis ([1]; topical (external)): insufficiently efficacious

CCS(=O)(=O)CCn1c([N+](=O)[O-])cnc1C [Tinidazole]
relapsing of a specific process (trichomonads): up to 8.4% of all cases

Cc1ncc([N+](=O)[O-])n1CCO [Metronidazole]
relapsing of a specific process (trichomonads): up to 8.4% of all cases

OB(O)O [boric acid]
efficacy in topical treatment of urogenital trichomoniasis ([1]; in vivo): insufficiently efficacious

[H]/N=C(\N/C(=N/[H])NCCCCCCNC(=N)NC(=N)Nc1ccc(Cl)cc1)Nc1ccc(Cl)cc1 [Chlorhexidine]
bactericidal activity in vitro (venereal diseases [2]): adequate bactericidal activity
bactericidal activity in tests on animals (venereal diseases [3]): adequate bactericidal activity
effect upon skin and genital mucosa in man [4]: irritating and withering effect upon the skin and genital mucosa
